Assay results as given in US20230382910A1, “HETEROARYL COMPOUNDS FOR THE TREATMENT OF PAIN” (VERTEX PHARMACEUTICALS INCORPORATED, priority 2022, published 2023).

target: human NaV 1.8 (Homo sapiens, UniProt Q9Y5Y9); test: E-VIPR Assay Detecting and Measuring NaV Inhibition Properties; type: cell-based; conditions: HEK cells expressing a truncated form of human NaV 1.8; electrical stimulation, membrane potential FRET dyes; read-out: measured IC50 value in the E-VIPR Assay
Text: E-VIPR Assay Detecting and Measuring NaV Inhibition Properties
Sodium ion channels are voltage-dependent proteins that can be activated by inducing membrane voltage changes by applying electric fields. The electrical stimulation instrument and methods of use, referred to as E-VIPR, are described in International Publication No. WO 2002/008748 A3 and C.-J. Huang et al. Characterization of voltage-gated sodium channel blockers by electrical stimulation and fluorescence detection of membrane potential, 24 Nature Biotech. 439-46 (2006), both of which are incorporated by reference in their entirety. The instrument comprises a microtiter plate handler, an optical system for exciting the coumarin dye while simultaneously recording the coumarin and oxonol emissions, a waveform generator, a current- or voltage-controlled amplifier, and parallel electrode pairs that are inserted into assay plate wells. Under integrated computer control, this instrument passes user-programmed electrical stimulus protocols to cells within the wells of the microtiter plate.
16-20 hours prior to running the assay on E-VIPR, HEK cells expressing a truncated form of human NaV 1.8 with full channel activity were seeded into microtiter 384-well plates, pre-coated with matrigel, at a density of 25,000 cells per well. 2.5-5% KIR2.1 BacMam virus was added to the final cell suspension before seeding into cell plates. HEK cells were grown in Dulbecco's Modified Eagle's Medium (DMEM) supplemented with 10% FBS (Fetal Bovine Serum, qualified; Sigma #F4135), 1% NEAA (Non-Essential Amino Acids, Gibco #11140), 1% HEPES (Gibco #15630), 1% Pen-Strep (Penicillin-Streptomycin; Gibco #15140) and 5 μg/ml Blasticidin (Gibco #R210-01). Cells were expanded in 5-layer CellSTACK culture chambers or cell culture flasks with vented caps, with 90-95% humidity and 5% CO2.
Compound Loading Buffer (2× concentration): Na/TMA Cl Bath1 Buffer containing HS (omitted in experiments run in the absence of human serum (HS)) 50%, VABSC-1 1 mM, BSA 0.2 mg/ml (in Bath-1), KCl 9 mM, DMSO 0.625%.
Assay Protocol (7 Key Steps):
1) To reach the final concentration in each well, 375 nL of each compound was pre-spotted (in neat DMSO) into polypropylene compound plates at 240× desired final concentration from an intermediate stock concentration of 0.075 mM, in an 11-point dose response, 3-fold dilution, resulting in a top dose of 300 nM final concentration in the cell plate. Vehicle control (neat DMSO), and positive control (an established NaV1.8 inhibitor, 25 μM final in assay in DMSO) were added manually to the outermost columns of each plate respectively. The compound plate was backfilled with 45 μL per well of Compound Loading Buffer resulting in a 240-fold dilution of compound following a 1:1 transfer of compound into the cell plate (see Step 6). Final DMSO concentration for all wells in the assay was 0.625% (0.75% DMSO was supplemented to the Compound Loading Buffer for a final DMSO concentration of 0.625%). This assay dilution protocol was adjusted to enable a higher dose range to be tested in the presence of HS or if the final assay volume was altered.
2) Hexyl Dye Solution was prepared.
3) Cell plates were prepared. On the day of the assay, the media was aspirated, and the cells were washed three times with 80 μL of Bath-1 buffer, maintaining 25 μL residual volume in each well.
4) 25 μL per well of Hexyl Dye Solution was dispensed into the cell plates. The cells were incubated for 20 minutes at room temperature or ambient conditions in darkness.
5) 45 μL per well of Compound Loading Buffer was dispensed into compound plates.
6) The cell plates were washed three times with 80 μL per well of Bath-1 Buffer, leaving 25 µL of residual volume. Then 25 μL per well from compound plate was transferred to each cell plate. The mixture was incubated for 30 minutes at room temperature/ambient conditions. […]

human NaV 1.8, sequence (Q9Y5Y9 126-399 limits assumed): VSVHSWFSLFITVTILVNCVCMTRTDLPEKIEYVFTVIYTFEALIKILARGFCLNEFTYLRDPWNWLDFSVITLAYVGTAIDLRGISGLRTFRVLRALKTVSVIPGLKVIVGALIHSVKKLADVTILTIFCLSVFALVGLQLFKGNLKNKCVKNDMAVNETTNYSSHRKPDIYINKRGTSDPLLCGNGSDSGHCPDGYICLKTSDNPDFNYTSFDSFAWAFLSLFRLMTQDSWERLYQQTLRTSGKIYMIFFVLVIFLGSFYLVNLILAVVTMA
human NaV 1.8, sequence (Q9Y5Y9 660-890 limits assumed): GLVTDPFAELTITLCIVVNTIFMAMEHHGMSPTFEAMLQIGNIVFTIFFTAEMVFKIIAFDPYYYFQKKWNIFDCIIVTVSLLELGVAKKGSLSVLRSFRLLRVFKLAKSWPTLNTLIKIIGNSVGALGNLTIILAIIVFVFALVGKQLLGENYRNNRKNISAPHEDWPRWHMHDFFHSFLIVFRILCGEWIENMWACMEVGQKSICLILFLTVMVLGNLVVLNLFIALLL
human NaV 1.8, sequence (Q9Y5Y9 1148-1722 limits assumed): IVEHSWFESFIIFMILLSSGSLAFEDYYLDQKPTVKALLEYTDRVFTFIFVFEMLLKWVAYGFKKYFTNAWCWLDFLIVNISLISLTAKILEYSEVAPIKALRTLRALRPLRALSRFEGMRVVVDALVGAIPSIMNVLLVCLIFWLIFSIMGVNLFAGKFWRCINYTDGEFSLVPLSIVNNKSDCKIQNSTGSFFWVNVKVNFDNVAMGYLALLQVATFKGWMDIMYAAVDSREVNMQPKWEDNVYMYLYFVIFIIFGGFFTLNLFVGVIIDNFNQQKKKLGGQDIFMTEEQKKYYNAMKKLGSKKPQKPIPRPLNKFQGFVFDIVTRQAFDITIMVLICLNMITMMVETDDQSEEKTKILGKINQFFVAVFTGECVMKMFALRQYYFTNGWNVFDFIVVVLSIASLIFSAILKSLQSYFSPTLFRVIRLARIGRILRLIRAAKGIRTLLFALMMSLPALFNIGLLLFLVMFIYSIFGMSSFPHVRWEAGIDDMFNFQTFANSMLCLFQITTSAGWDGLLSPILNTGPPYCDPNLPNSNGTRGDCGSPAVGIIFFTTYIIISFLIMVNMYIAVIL

Row | Structure (SMILES) | IC50
1 | Cc1nc(C(C)(C)C)c(C)nc1-c1cc(=O)c2c(C(N)=O)nccc2[nH]1 [Compound 246, 2-(5-tert-butyl-3,6-dimethyl-pyrazin-2-yl)-4-oxo-1H-1,6-naphthyridine-5-carboxamide] | 500 to 2000 nM
2 | CC(C)(C)c1cc(F)c(-c2cc(O)c3c(C(N)=O)nccc3n2)c(F)c1 [Compound 247, 2-(4-(tert-butyl)-2,6-difluorophenyl)-4-hydroxy-1,6-naphthyridine-5-carboxamide] | 500 to 2000 nM
3 | Cc1nc(-c2ccccc2)c(Cl)cc1-c1cc(=O)c2c(C(N)=O)nccc2[nH]1 [Compound 273, 2-(5-chloro-2-methyl-6-phenyl-3-pyridyl)-4-oxo-1H-1,6-naphthyridine-5-carboxamide] | 500 to 2000 nM
4 | Cc1nc(C2(C)CC2)c(Cl)cc1-c1cc(=O)c2c(C(N)=O)nccc2[nH]1 [Compound 286, 2-[5-chloro-2-methyl-6-(1-methylcyclopropyl)-3-pyridyl]-4-oxo-1H-1,6-naphthyridine-5-carboxamide] | 500 to 2000 nM
5 | Cc1nc(C(C)(C)CO)c(Cl)cc1-c1cc(=O)c2c(C(N)=O)nccc2[nH]1 [Compound 297, 2-[5-chloro-6-(2-hydroxy-1,1-dimethyl-ethyl)-2-methyl-3-pyridyl]-4-oxo-1H-1,6-naphthyridine-5-carboxamide] | 2000 to 5000 nM
6 | Cc1cc(C(C)(C)C)ccc1-c1cc(=O)c2nc(OCCN(C)C)ccc2[nH]1 [Compound 304, 2-(4-tert-butyl-2-methyl-phenyl)-6-[2-(dimethylamino)ethoxy]-1H-1,5-naphthyridin-4-one] | 500 to 2000 nM
7 | COc1cc(C(C)C)cc(C)c1-c1cc(=O)c2ccccc2[nH]1 [Compound 337, 2-(4-isopropyl-2-methoxy-6-methyl-phenyl)-1H-quinolin-4-one] | 500 to 2000 nM
8 | CC(C)(C)c1ccc(-c2cc(=O)c3cnccc3[nH]2)c(CCCO)c1 [Compound 346, 2-[4-tert-butyl-2-(3-hydroxypropyl)phenyl]-1H-1,6-naphthyridin-4-one] | 2000 to 5000 nM
9 | CC(C)(C)c1ccc(-c2[nH]c3ccncc3c(=O)c2Br)c(CCCO)c1 [Compound 347, 3-bromo-2-[4-tert-butyl-2-(3-hydroxypropyl)phenyl]-1H-1,6-naphthyridin-4-one] | 2000 to 5000 nM
10 | CC(C)CN(CC(C)C)c1nc2ccccc2cc1-c1cc(=O)c2c(C(N)=O)nccc2[nH]1 [Compound 351, 2-[2-(diisobutylamino)-3-quinolyl]-4-oxo-1H-1,6-naphthyridine-5-carboxamide] | 2000 to 5000 nM
11 | CCCN(CCC)c1nc2ccccc2cc1-c1cc(=O)c2c(C(N)=O)nccc2[nH]1 [Compound 352, 2-[2-(dipropylamino)-3-quinolyl]-4-oxo-1H-1,6-naphthyridine-5-carboxamide] | 2000 to 5000 nM

Second part, the compound after the results:

Row | IC50 | Structure (SMILES)
12 | 500 to 2000 nM | CCCCN(CC)c1nc2ccccc2cc1-c1cc(=O)c2c(C(N)=O)nccc2[nH]1 [Compound 353, 2-[2-[butyl(ethyl)amino]-3-quinolyl]-4-oxo-1H-1,6-naphthyridine-5-carboxamide]
13 | 2000 to 5000 nM | Cc1cc(C(C)(C)CO)c(Cl)cc1-c1cc(=O)c2c(C(N)=O)nccc2[nH]1 [Compound 356, 2-[5-chloro-4-(2-hydroxy-1,1-dimethyl-ethyl)-2-methyl-phenyl]-4-oxo-1H-1,6-naphthyridine-5-carboxamide]
14 | 2000 to 5000 nM | Cc1nc(C(C)(C)C(=O)O)c(Cl)cc1-c1cc(=O)c2c(C(N)=O)nccc2[nH]1 [Compound 359, 2-[5-(5-carbamoyl-4-oxo-1H-1,6-naphthyridin-2-yl)-3-chloro-6-methyl-2-pyridyl]-2-methyl-propanoic acid]
15 | 500 to 2000 nM | CCOC(=O)c1nc(C)c(-c2nccc3[nH]c(-c4cc(Cl)c(C(C)(C)C)cc4C)cc(=O)c23)o1 [Compound 390, ethyl 5-[2-(4-tert-butyl-5-chloro-2-methyl-phenyl)-4-oxo-1H-1,6-naphthyridin-5-yl]-4-methyl-oxazole-2-carboxylate]
16 | 500 to 2000 nM | Cn1nc(C(C)(C)C)cc1-c1cc(=O)c2cc(F)ccc2[nH]1 [Compound 417, 2-(5-tert-butyl-2-methyl-pyrazol-3-yl)-6-fluoro-1H-quinolin-4-one]
17 | 2000 to 5000 nM | [2H]C([2H])([2H])C(c1cc(C)c(-c2cc(=O)c3c(C(N)=O)nccc3[nH]2)cc1Cl)(C([2H])([2H])[2H])C([2H])([2H])O [Compound 427, 2-(5-chloro-4-(1-hydroxy-2-(methyl-d3)propan-2-yl-1,1,3,3,3-d5)-2-methylphenyl)-4-oxo-1,4-dihydro-1,6-naphthyridine-5-carboxamide]
